Assay results: the supplement of paper PMC6965134

Experiment: TIMS collisional cross section (CCS, N2) of the lipid ion; higher = larger ion cross section
Details: ionization mode: positive, one isomer drawn

Compound	TIMS collisional cross section (sample type: HeLa)	TIMS collisional cross section (sample type: plasma)	TIMS collisional cross section (sample type: Liver)
CCCCCCC/C=C\CCCCCCCCC(=O)OC[C@H](COP(=O)([O-])OCC[N+](C)(C)C)OC(=O)CCCCCCCC/C=C\CCCCCCC [PC 18:1_18:1] (ion (formula + adduct): [C44H84NO8P+H] 1+)	292.9 Å²		
CCCCCCCC/C=C\C/C=C\CCCCC(=O)O[C@H](COC(=O)CCCCCCC/C=C\CCCCCCCC)COP(=O)([O-])OCC[N+](C)(C)C [PC 18:1_18:2@] (ion (formula + adduct): [C44H82NO8P+H] 1+)	290.1 Å²		
CCCCCCCC/C=C\C/C=C\CCCCC(=O)O[C@H](COC(=O)CCCCCCC/C=C\CCCCCCCC)COP(=O)([O-])OCC[N+](C)(C)C [PC 18:1_18:2] (ion (formula + adduct): [C44H82NO8P+H] 1+)		289.8 Å²	
CCCCC/C=C\C/C=C\CCCCCCCCCC(=O)O[C@H](COC(=O)CCCCCCC/C=C\CCCCCCCC)COP(=O)([O-])OCC[N+](C)(C)C [PC 18:1_20:2] (ion (formula + adduct): [C46H86NO8P+H] 1+)	295.9 Å²		
CCCCCCCC/C=C\C/C=C\C/C=C\CCCC(=O)O[C@H](COC(=O)CCCCCCC/C=C\CCCCCCCC)COP(=O)([O-])OCC[N+](C)(C)C [PC 18:1_20:3] (ion (formula + adduct): [C46H84NO8P+H] 1+)	294 Å²		293.7 Å²
CCCCC/C=C\C/C=C\C/C=C\C/C=C\CCCC(=O)O[C@H](COC(=O)CCCCCCC/C=C\CCCCCCCC)COP(=O)([O-])OCC[N+](C)(C)C [PC 18:1_20:4] (ion (formula + adduct): [C46H82NO8P+H] 1+)		294.3 Å²	
CCCCCCCC/C=C\CCCCCCCC(=O)OC[C@H](COP(=O)([O-])OCC[N+](C)(C)C)OC(=O)CCCCCCCCC/C=C\CCCCCCCCCC [PC 18:1_22:1@] (ion (formula + adduct): [C48H92NO8P+H] 1+)	304.8 Å²		
CCCCC/C=C\C/C=C\CCCCCCCCCCCC(=O)O[C@H](COC(=O)CCCCCCC/C=C\CCCCCCCC)COP(=O)([O-])OCC[N+](C)(C)C [PC 18:1_22:2@] (ion (formula + adduct): [C48H90NO8P+H] 1+)	302.4 Å²		
CC/C=C\C/C=C\C/C=C\C/C=C\C/C=C\C/C=C\CCC(=O)O[C@H](COC(=O)CCCCCCCCC/C=C\CCCCCC)COP(=O)([O-])OCC[N+](C)(C)C [PC 18:1_22:6@] (ion (formula + adduct): [C48H82NO8P+H] 1+)		296.5 Å²	
CC/C=C\C/C=C\C/C=C\C/C=C\C/C=C\C/C=C\CCC(=O)O[C@H](COC(=O)CCCCCCCCC/C=C\CCCCCC)COP(=O)([O-])OCC[N+](C)(C)C [PC 18:1_22:6] (ion (formula + adduct): [C48H82NO8P+H] 1+)			295.6 Å²
CCCCC/C=C\C/C=C\C/C=C\CCCCC(=O)O[C@H](COC(=O)CCCCCCC/C=C\C/C=C\CCCCC)COP(=O)([O-])OCC[N+](C)(C)C [PC 18:2@_18:3] (ion (formula + adduct): [C44H78NO8P+H] 1+)			284.9 Å²
CCCCC/C=C\C/C=C\C/C=C\C/C=C\CCCC(=O)O[C@H](COC(=O)CCCCCCC/C=C\C/C=C\CCCCC)COP(=O)([O-])OCC[N+](C)(C)C [PC 18:2@_20:4] (ion (formula + adduct): [C46H80NO8P+H] 1+)			290.9 Å²
CC/C=C\C/C=C\C/C=C\C/C=C\C/C=C\CCCC(=O)O[C@H](COC(=O)CCCCCCC/C=C\C/C=C\CCCCC)COP(=O)([O-])OCC[N+](C)(C)C [PC 18:2@_20:5] (ion (formula + adduct): [C46H78NO8P+H] 1+)	286.6 Å²	287 Å²	
CCCCC/C=C\C/C=C\CCCCCCCC(=O)OC[C@H](COP(=O)([O-])OCC[N+](C)(C)C)OC(=O)CCCCCCCCCCCCCCCCCCCCCCC [PC 18:2@_24:0] (ion (formula + adduct): [C50H96NO8P+H] 1+)		310.1 Å²	
CCCCCCCCCCCCC/C=C/C=C/C(=O)OC[C@H](COP(=O)([O-])OCC[N+](C)(C)C)OC(=O)/C=C/C=C/CCCCCCCCCCCCC [PC 18:2_18:2] (ion (formula + adduct): [C44H80NO8P+H] 1+)	287.6 Å²	286.9 Å²	
CCCCC/C=C\C/C=C\C/C=C\CCCCC(=O)O[C@H](COC(=O)CCCCCCC/C=C\C/C=C\CCCCC)COP(=O)([O-])OCC[N+](C)(C)C [PC 18:2_18:3@] (ion (formula + adduct): [C44H78NO8P+H] 1+)		289.3 Å²	289.9 Å²
CCCCC/C=C\C/C=C\C/C=C\CCCCC(=O)O[C@H](COC(=O)CCCCCCC/C=C\C/C=C\CCCCC)COP(=O)([O-])OCC[N+](C)(C)C [PC 18:2_18:3] (ion (formula + adduct): [C44H78NO8P+H] 1+)		283.6 Å²	
CCCCC/C=C\C/C=C\CCCCCCCC(=O)OC[C@H](COP(=O)([O-])OCC[N+](C)(C)C)OC(=O)CCCCCCCCCCCCCCCCCC [PC 18:2_19:0] (ion (formula + adduct): [C45H86NO8P+H] 1+)			294.4 Å²
CCCCC/C=C\C/C=C\C/C=C\C/C=C\CCCC(=O)O[C@H](COC(=O)CCCCCCC/C=C\C/C=C\CCCCC)COP(=O)([O-])OCC[N+](C)(C)C [PC 18:2_20:4] (ion (formula + adduct): [C46H80NO8P+H] 1+)			290.1 Å²
CC/C=C\C/C=C\C/C=C\C/C=C\C/C=C\C/C=C\CCC(=O)O[C@H](COC(=O)CCCCCCC/C=C\C/C=C\CCCCC)COP(=O)([O-])OCC[N+](C)(C)C [PC 18:2_22:6] (ion (formula + adduct): [C48H80NO8P+H] 1+)			292.5 Å²
CCCCC/C=C\C/C=C\C/C=C\CCCCC(=O)OC[C@H](COP(=O)([O-])OCC[N+](C)(C)C)OC(=O)CCCCCCC/C=C\CCCCCCCCC [PC 18:3@_19:1] (ion (formula + adduct): [C45H82NO8P+H] 1+)		295 Å²	
CCCCC/C=C\C/C=C\C/C=C\C/C=C\CCCC(=O)O[C@H](COC(=O)CCCC/C=C\C/C=C\C/C=C\CCCCC)COP(=O)([O-])OCC[N+](C)(C)C [PC 18:3@_20:4] (ion (formula + adduct): [C46H78NO8P+H] 1+)		292.8 Å²	
CCCCC/C=C\C/C=C\C/C=C\CCCCCCC(=O)O[C@H](COC(=O)CCCC/C=C\C/C=C\C/C=C\CCCCC)COP(=O)([O-])OCC[N+](C)(C)C [PC 18:3_20:3@] (ion (formula + adduct): [C46H80NO8P+H] 1+)			293.2 Å²
CCCCC/C=C\C/C=C\C/C=C\C/C=C\CCCC(=O)O[C@H](COC(=O)CCCC/C=C\C/C=C\C/C=C\CCCCC)COP(=O)([O-])OCC[N+](C)(C)C [PC 18:3_20:4] (ion (formula + adduct): [C46H78NO8P+H] 1+)			286.7 Å²
CC/C=C\C/C=C\C/C=C\C/C=C\C/C=C\CCCC(=O)O[C@H](COC(=O)CCCC/C=C\C/C=C\C/C=C\CCCCC)COP(=O)([O-])OCC[N+](C)(C)C [PC 18:3_20:5] (ion (formula + adduct): [C46H76NO8P+H] 1+)		288.2 Å²	
